The record followed here is patent publication US7285528B2, “Agonists and antagonists of gonadotropin-releasing hormone-2, and use thereof” (priority 2002, dated 2007).

Structures are written as SMILES. Where a SMILES comes first, the peptide text is derived from it. [ ]: non-standard residue; d: D form. pGlu = O=C1CC[C@@H](C(=O)O)N1

In one experiment the test system is bfGnRHR-2. The experiment can be described thus: Inositol phosphate (IP) production, GH3 cells expressing bfGnRHR-2. It is filed as cell-based, bullfrog. The following applies: log of EC50 (negative values), concentration inducing half-maximal stimulation, 30 min. From the text: (§1) The GnRH receptor, a membrane protein connected with the G protein, activates the G protein when activated by a ligand, and the activated G protein activates phospholipase C and thereby the synthesis of inositol phosphate (IP), which is the second transmitter in cells, is increased. Based on this principle, the activity of a receptor can be investigated by measuring the amount of IP within cells. GH3 cell lines were obtained from the Cell Line Bank at the Cancer Research Center, Seoul National University College of Medicine, located in Seoul, Republic of Korea. The GH3 cell lines were infected with retroviruses comprising genes encoding […]-2, and bfGnRHR-3 which are bullfrog GnRH receptors, and rat GnRHR, and cell lines expressing each of these receptors were obtained. The GH3 cells expressing […]-3, and rat GnRHR were cultured on 12-well plates. After 24 hours, the cells were cultured again for 24 hours in a media containing no inositol, to which H^3-myoinositol was added. […] Thereafter, they were treated with GnRH having a suitable concentration, cultured at 37° C. for another 30 minutes, and then the media was eliminated. The cells were treated with 10 mM of ice-cold formic acid to terminate the reaction, and the cell extracts were mixed with Dowex anionic exchange resins. These resins were washed with distilled water, IP was extracted with 1 M ammonium formate/0.1 M formic acid, and cpm (count per minute) was determined. The GH3 cell lines were infected with retroviruses comprising genes encoding […]-2, and bfGnRHR-3 which are bullfrog GnRH receptors, and rat GnRHR, and cell lines expressing each of these receptors were obtained. […] In all the cell lines it was observed that when they were treated with GnRH and the agonists, IP was formed in a concentration-dependent manner.

The test system of experiment [1] is bfGnRHR-3. The experiment is described as follows: Inositol phosphate (IP) production, GH3 cells expressing bfGnRHR-3. It is filed as cell-based, bullfrog. The following applies: log of EC50 (negative values), concentration inducing half-maximal stimulation, 30 min.
From the text: as §1

Experiment [2] concerns bfGnRHR-3. The experiment can be described thus: Ligand-receptor binding assay, I125-GnRH-2 competition, membranes of GH3 cells expressing bfGnRHR-3. On the set-up: species or system bullfrog. Conditions: log of IC50 (negative values); competition with I125-GnRH-2, 4° C., 16 hours. The protocol:
To determine the binding affinity between GnRH and GnRH receptors, GnRH-2 was radiolabeled with I^125. The GH3 cells expressing bfGnRHR-1, bfGnRHR-2, bfGnRHR-3, and rat GnRHR constructed in Example 2-3 above were cultured on 100-mm dishes. After 48 hours, the cells were homogenized to obtain cellular membranes, which were then dissolved in binding buffer (40 mM Tris, pH 7.4, 2 mM MgCl2). 20 μg of membrane proteins were reacted with I^125-GnRH-2 at 4° C. for 16 hours. […] After the reaction was completed, 1^125-GnRH-2 bound to the receptors was filtered using a Brandel harvester, and cpm was measured using a γ-counter.
The GH3 cells expressing bfGnRHR-3 obtained from Example 6-1 above were treated with l^125GnRH-2 and GnRH-2 agonists and antagonists at various concentrations to determine the binding affinity of GnRH-2 agonists and antagonists toward the receptors.

The subject of a further experiment is TSU-Pri cells. The experiment can be described thus: Binding of radiolabeled GnRH to TSU-Pri prostate cancer cells and competition. On the set-up: species or system human. Conditions: for reduction of radiolabeled GnRH-2 binding to TSU-Pri cells by unradiolabeled competitor: unradiolabeled peptide as competitor. The protocol:
The radiolabeled GnRH and the cells were cultured at room temperature for 6 hours, and then washed with PBS (phosphate-buffered saline) several times to eliminate the unbound GnRH. Thereafter, the cells were isolated and radioactivity from the cells was measured using a γ-counter.

A further experiment relates to Primate GnRH-2 receptor. The experiment is described as follows: c-fos-luc luciferase activation by agonists, CV-1 cells expressing Primate GnRH-2 receptor. It is filed as cell-based, Primates. Conditions: luciferase activation; for Log EC50: log of EC50 (negative values); for Log EC50 / Emax (fold-induction): average of three independent experiments; for Ratio of EC50 values based on EC50 value of GnRH-2: GnRH-2 = 1. The protocol:
Complimentary DNA (cDNA) for a Primate GnRH-2 receptor was obtained from a CV-1 cell genome. […] Plasmids having Primate GnRH-2 receptors where transfected into CV-1 cells. To assay the activity of the receptor, c-fos-luc where a luciferase gene is fused with a c-fos promoter was co-transfected as a probe gene. After 48 hours from transfection, the cells were treated with GnRH-2 agonists and then the activity of luciferase was assayed (Seong et al., Endocrinology vol 144 2003, 454-466). […] Of the GnRH-2 receptors, [[…]]GnRH-2 performed excellently, showing effects about 3 times that of a wild-type ligand, GnRH-2. […] When analogs where the 5th, 7th, and 8th amino acids of [[…]]GnRH-2 are substituted were used, it was observed that their effects were weaker than [[…]]GnRH-2, and therefore it can be seen that it is important to maintain His, Trp, and Tyr that are found at the 5th, 7th, and 8th positions of GnRH-2 as they are (FIG. 3b). Log EC50 values and Emax values of GnRH-2 agonists are average values of experiments that were conducted independently three times. Ratio^a represents the ratio of EC50 values of other GnRH analogs based on EC50 values of GnRH-2.

In a further experiment the target is T1, rat GnRHR (Rattus norvegicus, UniProt P30969).
T1 construct: expressed in transfected cells; host or cells: GH3 cells, retrovirus-mediated infection
T1 sequence (P30969 1-327): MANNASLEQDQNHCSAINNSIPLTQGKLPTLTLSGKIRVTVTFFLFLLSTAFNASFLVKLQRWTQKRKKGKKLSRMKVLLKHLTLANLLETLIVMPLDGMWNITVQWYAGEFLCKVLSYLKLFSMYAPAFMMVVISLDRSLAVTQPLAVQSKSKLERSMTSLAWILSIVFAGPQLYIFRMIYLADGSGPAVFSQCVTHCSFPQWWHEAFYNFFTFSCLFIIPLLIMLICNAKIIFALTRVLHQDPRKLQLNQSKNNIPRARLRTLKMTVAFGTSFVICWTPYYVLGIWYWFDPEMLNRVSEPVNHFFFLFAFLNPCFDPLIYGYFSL
The experiment is described as follows: Inositol phosphate (IP) production, GH3 cells expressing rat GnRHR. It is filed as cell-based. The following applies: for sensitivity compared with GnRH-1: rat GnRHR. From the text: The GnRH receptor, a membrane protein connected with the G protein, activates the G protein when activated by a ligand, and the activated G protein activates phospholipase C and thereby the synthesis of inositol phosphate (IP), which is the second transmitter in cells, is increased. Based on this principle, the activity of a receptor can be investigated by measuring the amount of IP within cells. GH3 cell lines were obtained from the Cell Line Bank at the Cancer Research Center, Seoul National University College of Medicine, located in Seoul, Republic of Korea. The GH3 cell lines were infected with retroviruses comprising genes encoding […]-2, and bfGnRHR-3 which are bullfrog GnRH receptors, and rat GnRHR, and cell lines expressing each of these receptors were obtained. The GH3 cells expressing […]-3, and rat GnRHR were cultured on 12-well plates. After 24 hours, the cells were cultured again for 24 hours in a media containing no inositol, to which H^3-myoinositol was added. […] Thereafter, they were treated with GnRH having a suitable concentration, cultured at 37° C. for another 30 minutes, and then the media was eliminated. The cells were treated with 10 mM of ice-cold formic acid to terminate the reaction, and the cell extracts were mixed with Dowex anionic exchange resins. These resins were washed with distilled water, IP was extracted with 1 M ammonium formate/0.1 M formic acid, and cpm (count per minute) was determined. The GH3 cell lines were infected with retroviruses comprising genes encoding […]-2, and bfGnRHR-3 which are bullfrog GnRH receptors, and rat GnRHR, and cell lines expressing each of these receptors were obtained.

A further experiment deals with bfGnRHR-1. The experiment is described as follows: Inositol phosphate (IP) production, GH3 cells expressing bfGnRHR-1. It is filed as cell-based, bullfrog. The following applies: for Log EC50: log of EC50 (negative values), concentration inducing half-maximal stimulation, 30 min.
From the text: as §1

In experiment [3] the test system is luteinizing hormone and testosterone secretion. The experiment can be described thus: GnRH-2 agonist-induced serum LH and testosterone levels in male rat (radioimmunoassay). It is filed as in vivo. Conditions: 10 μg injected. The protocol:
Example 3: GnRH-2 Agonist-induced serum LH and testosterone levels [D-Ala^6]GnRH-2 was dissolved in saline at a concentration of 100 μg/ml, and then 10 μg of [D-Ala^6]GnRH-2 was injected into the cervix of a male rat (Sprague Dawley rat having a weight of approximately 100 g). 1, 2, 4, and 8 hours after the injection, serum was obtained from the rat. The concentration of luteinizing hormone and testosterone present in the serum was measured by radioimmunoassay.

Setting [4] is: cells expressing rat GnRH receptor.

Regarding `NC(=O)CNC(=O)[C@@H]1CCCN1C(=O)[C@H](Cc1ccc(O)cc1)NC(=O)[C@H](Cc1c[nH]c2ccccc12)NC(=O)CNC(=O)[C@H](Cc1c[nH]cn1)NC(=O)[C@H](CO)NC(=O)[C@H](Cc1c[nH]c2ccccc12)NC(=O)[C@H](Cc1c[nH]cn1)NC(=O)[C@@H]1CCC(=O)N1` [GnRH-2] ([pGlu]HWSHGWYPG-NH2), the “Log EC50” value with bfGnRHR-2 was −8.98 ± 0.14; with bfGnRHR-3 [1] it was −9.51 ± 0.10; in the experiment on Primate GnRH-2 receptor it was −8.39 ± 0.10; in the experiment with bfGnRHR-1 it was −9.41 ± 0.13. Also, in the experiment with bfGnRHR-3 [2], the “Binding affinity (log IC50 value)” value is on record as −8.63 ± 0.14. In addition, the “binding of radiolabeled ligand to TSU-Pri cells” value in the experiment with TSU-Pri cells (I125-radiolabeled peptide, room temperature, 6 hours) is recorded as “binding with cells was observed”. In addition, in the experiment on TSU-Pri cells, the “reduction of radiolabeled GnRH-2 binding to TSU-Pri cells by unradiolabeled competitor” value was “the binding was reduced”. In addition, the “Ratio of EC50 values based on EC50 value of GnRH-2” value (from here on “Ratio of EC50 values based”) with Primate GnRH-2 receptor is recorded as 1. For the same compound, the “Emax (fold-induction)” value in the experiment with Primate GnRH-2 receptor is reported as 11.74 ± 0.31 fold-induction. Further, the “sensitivity compared with GnRH-1” value at rat GnRHR is reported as “a sensitivity lower than 10-fold”.

On to `C[C@@H](NC(=O)[C@H](Cc1c[nH]cn1)NC(=O)[C@H](CO)NC(=O)[C@H](Cc1c[nH]c2ccccc12)NC(=O)[C@H](Cc1c[nH]cn1)NC(=O)[C@@H]1CCC(=O)N1)C(=O)N[C@@H](Cc1c[nH]c2ccccc12)C(=O)N[C@@H](Cc1ccc(O)cc1)C(=O)N1CCC[C@H]1C(=O)NCC(N)=O` [[D-Ala^6]GnRH-2, p-Glu-His-Trp-Ser-His-D-Ala-Trp-Tyr-Pro-GlyNH2] ([pGlu]HWSH[dA]WYPG-NH2), for which the “Log EC50” value with bfGnRHR-2 is reported as −9.91 ± 0.19. Further, in the experiment on bfGnRHR-3 [1], the “Log EC50” value is −9.89 ± 0.10. Besides, the “Binding affinity (log IC50 value)” value with bfGnRHR-3 [2] was −9.83 ± 0.14. In addition, the “serum luteinizing hormone (LH)” value in experiment [3] (male Sprague Dawley rat about 100 g, serum 1, 2, 4, 8 hours) is on record as “an increase of luteinizing hormone (LH) was observed in only one hour”. In experiment [3] (male rat), the “time of serum testosterone peak after injection” value turned out to be 4 h. For the same compound, the serum testosterone result in experiment [3] (male rat, compared with before the injection) is given as “significantly high value even after 8 hours”. For the same compound, the “reduction of radiolabeled GnRH-2 binding to TSU-Pri cells by unradiolabeled competitor” value in the experiment with TSU-Pri cells is reported as “reduced in a concentration-dependent manner”. Also, in the experiment with Primate GnRH-2 receptor, the “Log EC50” value is listed as −8.81 ± 0.12, the “Ratio of EC50 values based” value is 0.38 and the “Emax (fold-induction)” value turned out to be 11.84 ± 0.47 fold-induction. For the same compound, on rat GnRHR (setting [4]), the “fold higher sensitivity than GnRH-2” value stood at 5 fold and the “fold lower sensitivity than GnRH-1” value was found to be 3.5 fold. At rat GnRHR, the “sensitivity compared with GnRH-1” value was “a sensitivity lower than 10-fold”. Further, in the experiment on bfGnRHR-1, the “fold lower activating concentration than GnRH-2” value was around 8 fold and the “Log EC50” value is −9.91 ± 0.13.

Consider `NC(=O)CNC(=O)[C@@H]1CCCN1C(=O)[C@H](Cc1ccc(O)cc1)NC(=O)[C@H](Cc1c[nH]c2ccccc12)NC(=O)[C@@H](Cc1c[nH]c2ccccc12)NC(=O)[C@H](Cc1c[nH]cn1)NC(=O)[C@H](CO)NC(=O)[C@H](Cc1c[nH]c2ccccc12)NC(=O)[C@H](Cc1c[nH]cn1)NC(=O)[C@@H]1CCC(=O)N1` [[D-Trp^6]GnRH-2] ([pGlu]HWSH[dW]WYPG-NH2), for which the “Log EC50” value in the experiment with bfGnRHR-2 was −9.21 ± 0.13; in the experiment on bfGnRHR-3 [1] it was −9.22 ± 0.11; in the experiment on Primate GnRH-2 receptor, −8.31 ± 0.09; in the experiment on bfGnRHR-1 it was −9.40 ± 0.12. Also, the “Binding affinity (log IC50 value)” value in the experiment with bfGnRHR-3 [2] is −8.10 ± 0.11. Moreover, the “fold lower effect than GnRH-2” value with Primate GnRH-2 receptor is on record as around 1.2 fold. Also, in the experiment with Primate GnRH-2 receptor, the “Ratio of EC50 values based” value is 1.20. Also, in the experiment with Primate GnRH-2 receptor, the “Emax (fold-induction)” value came to 11.20 ± 0.32 fold-induction.
